Test results: ChEMBL document CHEMBL6182942, “Discovery of a Selective, Novel TGF-βR1 Inhibitor GFH018 for the Treatment of Solid Tumors” (J Med Chem, 2025)
≈ marks a conversion by molar mass, not a printed value. Calls of active or inactive are those of the source. No cut-off for these calls is given here.

What was measured:
[1] = system: 4T1-Luc; assay: Antimetastatic activity against mouse 4T1-Luc cells implanted in BALB/c mouse assessed as reduction in metastatic rate in lung at 100 mg/kg, po administered daily for 32 days and measured on day 30 to 35 by IVIS fluorescence analysis; assay type: functional, organism-based; conditions: time 35.0 day
[2] = molecular target: Activin receptor type-1B (Homo sapiens) (UniProt P36896); assay: Inhibition of ALK4 (unknown origin) assessed as residual activity at 1 uM relative to control
Activin receptor type-1B (Homo sapiens), sequence (P36896 whole entry): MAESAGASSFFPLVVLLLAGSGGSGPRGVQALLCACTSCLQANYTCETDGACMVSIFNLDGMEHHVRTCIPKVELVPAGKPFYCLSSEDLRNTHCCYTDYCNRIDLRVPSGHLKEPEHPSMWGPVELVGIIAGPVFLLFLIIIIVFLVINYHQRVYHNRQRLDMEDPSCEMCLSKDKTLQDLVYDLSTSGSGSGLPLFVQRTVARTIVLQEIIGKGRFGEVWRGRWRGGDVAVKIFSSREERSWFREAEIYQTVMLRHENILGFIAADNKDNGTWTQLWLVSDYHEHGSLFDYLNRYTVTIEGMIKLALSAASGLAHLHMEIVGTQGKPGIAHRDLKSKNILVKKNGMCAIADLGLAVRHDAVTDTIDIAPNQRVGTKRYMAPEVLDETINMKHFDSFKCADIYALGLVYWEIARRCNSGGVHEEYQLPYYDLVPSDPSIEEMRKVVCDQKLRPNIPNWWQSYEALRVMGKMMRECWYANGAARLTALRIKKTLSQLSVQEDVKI

[3] = Clearance in Beagle dog at 1 mg/kg, iv by LC-MS/MS analysis; assay type: ADME, organism-based, Canis lupus familiaris; conditions: in vivo
[4] = Mutagenicity in Salmonella typhimurium TA98 by Ames test; assay type: toxicity; conditions: salmonella enterica subsp. enterica serovar typhimurium
[5] = Drug metabolism in human liver microsomes; assay type: ADME, Microsome
[6] = Oral bioavailability in Beagle dog at 5 mg/kg via gavage by LC-MS/MS analysis; assay type: ADME, organism-based, Canis lupus familiaris; conditions: in vivo
[7] = molecular target: Cytochrome P450 2D6 (Homo sapiens, UniProt P10635); assay: Inhibition of CYP2D6 in human liver microsomes using dextromethorphan as substrate preincubated for 10 mins followed by NADPH regeneration system addition and measured after 20 mins by LC-MS/MS analysis; assay type: ADME, Microsome
Cytochrome P450 2D6, sequence (P10635 whole entry): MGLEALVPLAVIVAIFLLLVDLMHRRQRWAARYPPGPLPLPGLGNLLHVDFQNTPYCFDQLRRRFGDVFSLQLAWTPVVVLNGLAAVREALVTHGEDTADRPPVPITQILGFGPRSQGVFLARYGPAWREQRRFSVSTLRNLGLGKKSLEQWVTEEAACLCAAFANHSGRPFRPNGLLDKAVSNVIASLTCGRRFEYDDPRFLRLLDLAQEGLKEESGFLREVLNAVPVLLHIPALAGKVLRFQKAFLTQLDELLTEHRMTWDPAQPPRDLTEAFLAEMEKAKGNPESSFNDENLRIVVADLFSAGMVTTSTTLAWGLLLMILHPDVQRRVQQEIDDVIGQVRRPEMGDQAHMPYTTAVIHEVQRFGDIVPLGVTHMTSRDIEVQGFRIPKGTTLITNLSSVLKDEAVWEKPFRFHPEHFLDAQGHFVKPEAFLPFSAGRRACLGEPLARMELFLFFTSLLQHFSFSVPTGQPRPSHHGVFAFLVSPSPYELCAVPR

[8] = system: CT26; assay: Synergistic antitumor activity against mouse CT26 cells implanted in BALB/c mouse assessed as tumor growth inhibition at 50 mg/kg, po administered twice daily in presence of antimouse-PD-L1 antibody; assay type: functional; conditions: read-out: TGI
[9] = molecular target: Receptor-interacting serine/threonine-protein kinase 2 (Homo sapiens) (UniProt O43353); assay: Inhibition of RIPK2 (unknown origin) assessed as residual activity at 1 uM relative to control
Receptor-interacting serine/threonine-protein kinase 2 (Homo sapiens), sequence (O43353 whole entry): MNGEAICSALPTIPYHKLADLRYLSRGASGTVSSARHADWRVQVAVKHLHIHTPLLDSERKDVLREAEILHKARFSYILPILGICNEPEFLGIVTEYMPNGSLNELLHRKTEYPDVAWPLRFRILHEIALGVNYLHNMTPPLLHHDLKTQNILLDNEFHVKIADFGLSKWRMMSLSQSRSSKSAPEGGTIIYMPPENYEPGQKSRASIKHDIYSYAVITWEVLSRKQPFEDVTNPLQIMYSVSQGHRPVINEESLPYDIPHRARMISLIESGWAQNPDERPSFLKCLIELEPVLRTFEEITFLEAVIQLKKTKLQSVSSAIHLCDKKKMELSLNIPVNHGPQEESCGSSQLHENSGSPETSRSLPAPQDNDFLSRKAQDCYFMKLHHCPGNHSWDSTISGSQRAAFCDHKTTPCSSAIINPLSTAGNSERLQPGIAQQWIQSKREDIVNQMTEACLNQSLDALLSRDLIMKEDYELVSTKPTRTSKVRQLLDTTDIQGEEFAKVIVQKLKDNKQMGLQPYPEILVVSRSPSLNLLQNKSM

[10] = Toxicity in mouse CT26 cell implanted BALB/c mouse assessed as change in body weight at 50 mg/kg, po administered twice daily; assay type: organism-based; conditions: in vivo
[11] = Drug metabolism in mouse liver microsomes; assay type: ADME, Microsome
[12] = system: H22; assay: Antitumor activity against mouse H22 cells implanted in po dosed BALB/c mouse assessed as tumor growth inhibition administered twice daily for 11 days and measured 3 times per week during compound dosing; assay type: functional, organism-based; conditions: dose lower […], dose upper 50.0 mg/kg, time 11.0 day
[13] = Metabolic stability in human liver microsomes assessed as parent compound remaining at 1 uM preincubated for 5 mins followed by NADPH addition by LC-MS/MS analysis; assay type: ADME, Microsome; conditions: read-out: Stability
[14] = Kinetic solubility of the compound in pH 7.4 aqueous buffer; assay type: physicochemical; conditions: read-out: Kinetic_solubility
[15] = Intrinsic clearance in human hepatocytes at 1 uM measured after 90 mins by LC-MS/MS analysis; assay type: ADME, cell-based, Hepatocyte; conditions: read-out: CLH
[16] = Mutagenicity in Salmonella typhimurium TA100 by Ames test; assay type: toxicity; conditions: salmonella enterica subsp. enterica serovar typhimurium
[17] = Volume of distribution at steady state in Sprague-Dawley rat at 1 mg/kg, iv by LC-MS/MS analysis; assay type: ADME, organism-based; conditions: in vivo, read-out: Vdss
[18] = molecular target: Cytochrome P450 2C19 (Homo sapiens, UniProt P33261); assay: Inhibition of CYP2C19 in human liver microsomes using (S)-mephenytoin as substrate preincubated for 10 mins followed by NADPH regeneration system addition and measured after 20 mins by LC-MS/MS analysis; assay type: ADME, Microsome
Cytochrome P450 2C19, sequence (P33261 whole entry): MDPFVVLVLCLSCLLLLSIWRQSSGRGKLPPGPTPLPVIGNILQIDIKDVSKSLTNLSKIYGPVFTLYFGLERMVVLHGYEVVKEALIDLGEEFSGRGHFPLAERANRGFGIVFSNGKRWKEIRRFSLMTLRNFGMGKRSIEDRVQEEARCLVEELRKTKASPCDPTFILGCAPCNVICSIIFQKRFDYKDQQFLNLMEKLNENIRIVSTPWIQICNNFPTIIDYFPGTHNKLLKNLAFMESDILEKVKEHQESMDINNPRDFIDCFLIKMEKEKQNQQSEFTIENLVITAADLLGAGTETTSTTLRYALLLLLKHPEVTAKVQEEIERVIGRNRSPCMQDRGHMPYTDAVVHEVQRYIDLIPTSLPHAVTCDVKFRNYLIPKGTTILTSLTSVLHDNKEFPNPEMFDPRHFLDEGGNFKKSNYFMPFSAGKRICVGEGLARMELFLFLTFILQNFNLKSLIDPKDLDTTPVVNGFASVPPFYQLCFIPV

[19] = Cmax in CD-1 mouse at 75 mg/kg, po via gavage by LC-MS/MS analysis; assay type: ADME, organism-based; conditions: in vivo
[20] = Intrinsic clearance in cynomolgus monkey hepatocytes at 1 uM measured after 90 mins by LC-MS/MS analysis; assay type: ADME, cell-based, Macaca fascicularis, Hepatocyte; conditions: read-out: CLH
[21] = Drug metabolism in dog hepatocytes; assay type: ADME, cell-based, Canis lupus familiaris, Hepatocyte
[22] = AUC (0 to last) in Beagle dog at 5 mg/kg, po by LC-MS/MS analysis; assay type: ADME, organism-based, Canis lupus familiaris; conditions: in vivo
[23] = Intrinsic clearance in rat hepatocytes at 1 uM measured after 90 mins by LC-MS/MS analysis; assay type: ADME, cell-based, Hepatocyte; conditions: read-out: CLH
[24] = Protein binding in cynomolgus monkey plasma at 0.2 to 10 uM measured after 4 hrs by equilibrium dialysis based LC-MS/MS analysis; assay type: ADME, cell-free, Macaca fascicularis; conditions: dose 0.2-10 µM, read-out: PPB (converted)
[25] = Clearance in Sprague-Dawley rat at 1 mg/kg, iv by LC-MS/MS analysis; assay type: ADME, organism-based; conditions: in vivo
[26] = Mutagenicity in Salmonella typhimurium TA98 in presence of liver S9 fraction by Ames test; assay type: toxicity, subcellular; conditions: salmonella enterica subsp. enterica serovar typhimurium
[27] = Half life in CD-1 mouse at 75 mg/kg, po via gavage by LC-MS/MS analysis; assay type: ADME, organism-based; conditions: in vivo
[28] = system: 4T1-Luc; assay: Antimetastatic activity against mouse 4T1-Luc cells implanted in BALB/c mouse assessed as reduction in metastatic rate in spleen at 100 mg/kg, po administered daily for 32 days and measured on day 30 to 35 by IVIS fluorescence analysis; assay type: functional, organism-based; conditions: time 35.0 day
[29] = molecular target: T1, TGF-beta receptor type-1 (Homo sapiens, UniProt P36897); assay: Inhibition of human TGFbetaR1 expressed in HEK293 cells co-expressing SBE assessed as reduction in TGFbeta/activin A-induced SMAD phosphorylation preincubated for 4 to 5 hrs followed by TGFbeta/activin A stimulation and measured after 18 hrs by luciferase reporter gene assay; assay type: cell-based
T1 sequence (P36897 whole entry): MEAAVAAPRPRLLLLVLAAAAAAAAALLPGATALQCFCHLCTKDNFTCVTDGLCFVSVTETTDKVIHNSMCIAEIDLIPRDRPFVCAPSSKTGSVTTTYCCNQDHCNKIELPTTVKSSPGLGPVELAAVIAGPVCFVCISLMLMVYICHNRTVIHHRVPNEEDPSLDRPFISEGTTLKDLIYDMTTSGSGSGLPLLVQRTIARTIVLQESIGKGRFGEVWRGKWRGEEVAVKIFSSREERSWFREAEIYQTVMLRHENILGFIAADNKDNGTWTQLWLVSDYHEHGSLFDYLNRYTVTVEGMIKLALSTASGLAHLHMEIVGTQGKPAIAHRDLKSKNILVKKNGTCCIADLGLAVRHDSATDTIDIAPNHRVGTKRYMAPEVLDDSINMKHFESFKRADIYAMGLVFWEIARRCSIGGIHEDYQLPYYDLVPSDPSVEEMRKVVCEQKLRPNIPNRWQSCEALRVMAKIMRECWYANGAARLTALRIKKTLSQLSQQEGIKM

[30] = system: H22; assay: Antitumor activity against mouse H22 cells implanted in BALB/c mouse assessed as tumor growth inhibition at 50 mg/kg, po administered twice daily for 11 days and measured 3 times per week during compound dosing relative to control; assay type: functional; conditions: H22, 264 h, time 11 day, read-out: TGI
[31] = molecular target: Voltage-gated inwardly rectifying potassium channel KCNH2 (Homo sapiens, UniProt Q12809); assay: Inhibition of human ERG stably expressed in HEK293 cells measured at holding potential of -80 mV by manual patch clamp assay; assay type: toxicity, cell-based
Voltage-gated inwardly rectifying potassium channel KCNH2, sequence (Q12809 whole entry): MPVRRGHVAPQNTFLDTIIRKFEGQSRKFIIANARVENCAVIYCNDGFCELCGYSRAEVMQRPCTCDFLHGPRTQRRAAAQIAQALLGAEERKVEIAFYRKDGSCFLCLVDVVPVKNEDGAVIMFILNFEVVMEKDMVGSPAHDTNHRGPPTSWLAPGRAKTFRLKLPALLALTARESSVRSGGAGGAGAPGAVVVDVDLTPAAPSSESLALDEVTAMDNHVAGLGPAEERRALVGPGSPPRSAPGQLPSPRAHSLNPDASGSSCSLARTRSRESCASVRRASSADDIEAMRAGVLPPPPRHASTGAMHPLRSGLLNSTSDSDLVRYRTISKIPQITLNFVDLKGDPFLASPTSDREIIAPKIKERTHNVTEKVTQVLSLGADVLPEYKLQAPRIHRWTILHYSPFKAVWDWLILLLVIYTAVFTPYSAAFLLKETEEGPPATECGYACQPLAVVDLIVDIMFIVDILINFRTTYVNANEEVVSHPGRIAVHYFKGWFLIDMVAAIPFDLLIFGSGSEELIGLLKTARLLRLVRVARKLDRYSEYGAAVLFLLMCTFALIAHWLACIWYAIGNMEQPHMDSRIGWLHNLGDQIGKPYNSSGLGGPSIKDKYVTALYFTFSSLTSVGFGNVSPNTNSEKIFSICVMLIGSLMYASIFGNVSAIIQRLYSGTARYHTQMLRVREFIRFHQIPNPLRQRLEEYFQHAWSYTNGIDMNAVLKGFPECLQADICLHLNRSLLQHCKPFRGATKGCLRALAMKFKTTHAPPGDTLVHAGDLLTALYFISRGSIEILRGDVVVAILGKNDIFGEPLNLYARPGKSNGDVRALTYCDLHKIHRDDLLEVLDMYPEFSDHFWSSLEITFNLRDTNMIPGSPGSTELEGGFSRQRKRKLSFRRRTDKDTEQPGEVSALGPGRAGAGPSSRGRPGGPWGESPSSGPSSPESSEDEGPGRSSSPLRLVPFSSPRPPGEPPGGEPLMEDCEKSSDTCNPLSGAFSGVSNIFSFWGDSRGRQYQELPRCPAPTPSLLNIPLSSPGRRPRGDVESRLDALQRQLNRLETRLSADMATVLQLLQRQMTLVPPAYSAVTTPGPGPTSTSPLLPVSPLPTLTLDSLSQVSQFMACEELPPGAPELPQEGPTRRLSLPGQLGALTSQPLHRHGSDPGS

[32] = system: MDR1; assay: Efflux ratio of apparent permeability in dog MDCK-MDR1 cells at 2 uM measured over 150 mins by LC-MS/MS analysis; assay type: ADME, cell-based, Canis lupus familiaris
[33] = system: T-cell; assay: Immunostimulatory activity in TGFbeta/anti-CD3 stimulated BALB/c mouse naive T cells assessed as reduction in Treg induction at 0.1 to 10 uM measured after 4 days by immunostaining based flow cytometry; assay type: functional; conditions: dose 0.1-10 µM, time 4.0 day

With `Cc1cccc(-c2nn3c(c2-c2ccc4ncnn4c2/C=C/C(N)=O)CCC3)n1` the Activity [1] was “Active”, the Activity [2] was less than 50% and the clearance [3] was 9.29 mL/min/kg. For the same molecule, the Activity [4] was “Non-toxic”, the Drug metabolism [5] was “metabolite_detected” and the bioavailability [6] was 65.5%. The IC50 [7] was greater than 100 µM, the inhibition in vivo at 50 mg/kg [8] was 79.4% and the Activity [9] was less than 50%. For the same molecule, the Activity [10] was “Non-toxic”, the Drug metabolism [11] was “metabolite_detected” and the TGI [12] was “Dose-dependent-effect”. For the same molecule, the remaining at 1 µM [13] was 87.5%, the solubility kinetic [14] was 185 µM (≈ 71.5 µg/mL) and the CLint scaled at […], 1 µM [15] was less than 6.9 mL/min/kg. For the same molecule, the Activity [16] was “Non-toxic”, the Vd [17] was 1.44 L/kg and the IC50 [18] was greater than 100 µM. The Cmax [19] was 24233 nM/ml, the CLint scaled at […], 1 µM [20] was 19.3 mL/min/kg and the Drug metabolism [21] was “metabolite_detected”. The AUClast [22] was 18284 nM.hr/ml, the CLint scaled at […], 1 µM [23] was 50 mL/min/kg and the fraction unbound at 4 h, up to 10 µM [24] was 0.522. The clearance [25] was 33.3 mL/min/kg, the Activity [26] was “Non-toxic” and the half-life [27] was 51.4 min. The Activity [28] was “Active”, the IC50 [29] was 0.105 µM and the inhibition in vivo at 50 mg/kg [30] was 57.5%. The IC50 [31] was greater than 30 µM, the efflux ratio at 2.5 h, 2 µM [32] was 70.7 and the Activity [33] was “Active”.
